The target of experiment [1] is T1, full length active recombinant SYK enzyme (Homo sapiens, UniProt P43405).
T1 construct: full length active recombinant SYK enzyme (Millipore, CA); purchased Millipore
The experiment can be described thus: SYK tyrosine phosphorylation activity, LANCE TR-FRET kinase assay. In kind it is biochemical. Particulars: 1 nM SYK, 100 μM ATP, 1 hour at room temperature. In outline: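 Full-length active SYK (1 nM) phosphorylates 550 nM biotinylated substrate with 100 μM ATP in Tris pH 7.5, MgCl2, DTT, 3% DMSO, 1 h at room temperature. EDTA stop with Eu-anti-phosphotyrosine/SA-APC TR-FRET detection, 1 h. IC50 by non-linear regression.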
(In general: In TR-FRET formats the signal depends on donor and acceptor labels being close together.)

For a further experiment, the target named is T2, JAK1 (Homo sapiens, UniProt P23458).
T2 construct: 5 μl of catalytic domain recombinant Kinase enzyme+Tyr peptide substrate (Invitrogen, CA); purchased Invitrogen
T2 sequence (P23458 875-1153 limits assumed): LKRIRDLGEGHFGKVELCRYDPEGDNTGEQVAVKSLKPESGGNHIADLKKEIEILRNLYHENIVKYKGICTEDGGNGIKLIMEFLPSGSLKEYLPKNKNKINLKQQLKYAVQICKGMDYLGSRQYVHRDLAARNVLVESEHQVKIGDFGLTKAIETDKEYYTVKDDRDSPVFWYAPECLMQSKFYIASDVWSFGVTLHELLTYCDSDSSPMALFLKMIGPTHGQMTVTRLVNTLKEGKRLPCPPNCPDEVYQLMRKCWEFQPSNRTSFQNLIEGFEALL
The experiment can be described thus: JAK tyrosine phosphorylation activity, Z'-LYTE FRET kinase assay. Particulars: catalytic domain recombinant kinase, Tyr6 peptide; for IC50: read-out: JAK1 IC50 % Inhibition. Format: biochemical. Summed up:
(§1)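 Catalytic-domain recombinant kinases with Tyr6 peptide substrate and ATP, 1% DMSO, reacted 1 h at room temperature, then protease development 1 h. FRET read at ex 400 nm, em 445/520 nm; inhibition from percent substrate phosphorylation versus no-inhibitor control, IC50 by 4-parameter logistic fit.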

For another experiment, the target named is T3, JAK2 (Homo sapiens, UniProt O60674).
T3 construct: 5 μl of catalytic domain recombinant Kinase enzyme+Tyr peptide substrate (Invitrogen, CA); purchased Invitrogen
T3 sequence (O60674 849-1124 limits assumed): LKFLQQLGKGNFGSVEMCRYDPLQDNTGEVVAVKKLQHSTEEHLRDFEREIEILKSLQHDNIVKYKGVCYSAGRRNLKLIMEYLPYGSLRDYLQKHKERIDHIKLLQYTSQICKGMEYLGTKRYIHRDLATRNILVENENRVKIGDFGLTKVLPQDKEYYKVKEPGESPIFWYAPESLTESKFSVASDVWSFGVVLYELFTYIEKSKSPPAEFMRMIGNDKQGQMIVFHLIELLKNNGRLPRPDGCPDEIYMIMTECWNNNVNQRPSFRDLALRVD
The description is as above. Format: biochemical. The settings on record: catalytic domain recombinant kinase, Tyr6 peptide. Summed up:
as §1

The target of the next experiment is T4, JAK3 (Homo sapiens, UniProt P52333).
T4 construct: 5 μl of catalytic domain recombinant Kinase enzyme+Tyr peptide substrate (Invitrogen, CA); purchased Invitrogen
T4 sequence (P52333 822-1111 limits assumed): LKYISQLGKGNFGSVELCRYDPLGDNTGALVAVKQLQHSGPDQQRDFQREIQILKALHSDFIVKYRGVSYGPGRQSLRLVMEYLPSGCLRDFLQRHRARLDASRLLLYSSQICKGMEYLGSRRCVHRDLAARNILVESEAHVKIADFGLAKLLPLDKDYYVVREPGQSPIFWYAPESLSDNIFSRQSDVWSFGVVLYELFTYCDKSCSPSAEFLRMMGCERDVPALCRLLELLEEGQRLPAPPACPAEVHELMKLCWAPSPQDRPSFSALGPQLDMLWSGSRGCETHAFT
The description is as above. Format: biochemical. The settings on record: catalytic domain recombinant kinase, Tyr6 peptide. Summed up:
as §1

Experiment [2] relates to lymphoma cell lines and primary human lymphoma samples. The settings on record: cited from earlier work.
The subject of experiment [3] is refractory NHL and chronic lymphocytic leukemia. Particulars: phase II; cited from earlier work.
The next experiment deals with JAK kinases. Particulars: cited from earlier work.
In a further experiment the test system is Src kinsase. Particulars: cited from earlier work.
Experiment [4] deals with FcεR1 and BCR induced Syk activation. Particulars: cited from earlier work.

As usually defined, the IC50 is the concentration needed to halve the response being measured. Take `CS(=O)(=O)N1CCN(c2ccc(Nc3ncc(C(N)=O)c(NC4CC4)n3)cc2Cl)CC1` [Compound 69, 2-((3-chloro-4-(4-(methylsulfonyl)piperazin-1-yl)phenyl)amino)-4-(cyclopropylamino)pyrimidine-5-carboxamide]: in experiment [1], the IC50 result is “+++ (0.10 uM<IC50<0.01 uM)”. For the same compound, the “JAK1 IC50 potency class” value at JAK1 was “+++ (0.10 uM<IC50<0.01 uM)”. The “JAK2 IC50 potency class” value at JAK2 was “++++ (0.01 uM<IC50<0.001 uM)”. Also, on JAK3, the “JAK3 IC50 potency class” value was “++++ (0.01 uM<IC50<0.001 uM)”.
As to `CCC(=O)N1CCC(c2ccc(Nc3ncc(C(N)=O)c(NC4CC4)n3)cc2)CC1` [Compound 7, 4-(cyclopropylamino)-2-((4-(1-propionylpiperidin-4-yl)phenyl)amino)pyrimidine-5-carboxamide], the concentration for half-maximal inhibition (IC50) entry in [1] is listed as “+++ (0.10 uM<IC50<0.01 uM)”. In addition, at JAK1, the “JAK1 IC50 potency class” value is “+++ (0.10 uM<IC50<0.01 uM)”. In addition, the “JAK2 IC50 potency class” value at JAK2 is given as “++++ (0.01 uM<IC50<0.001 uM)”. Moreover, the “JAK3 IC50 potency class” value on JAK3 is recorded as “++++ (0.01 uM<IC50<0.001 uM)”.
On to `NC(=O)c1cnc(Nc2ccc(C3CCNCC3)cc2)cc1NC1CC1` [Compound 63, 4-(cyclopropylamino)-6-((4-(piperidin-4-yl)phenyl)amino)nicotinamide], for which the results for the IC50 entry (in experiment [1]; at JAK1) were “++ (1.0 uM<IC50<0.10 uM)” and more than 1 µM, respectively. In addition, at JAK2, the “JAK2 IC50 potency class” value is reported as “++ (1.0 uM<IC50<0.10 uM)”. For the same compound, the “JAK3 IC50 potency class” value at JAK3 is listed as “++ (1.0 uM<IC50<0.10 uM)”.
Take `CCS(=O)(=O)N1CCN(c2c(F)cc(Nc3ncc(C(N)=O)c(NC4CC4)n3)cc2F)CC1` [Compound 50, 4-(cyclopropylamino)-2-((4-(4-(ethylsulfonyl)piperazin-1-yl)-3,5-difluorophenyl)amino)pyrimidine-5-carboxamide]: the IC50 entry was “++ (1.0 uM<IC50<0.10 uM)” in experiment [1] and more than 1 µM at JAK1. For the same compound, the “JAK2 IC50 potency class” value at JAK2 is recorded as “++ (1.0 uM<IC50<0.10 uM)”. In addition, on JAK3, the “JAK3 IC50 potency class” value is listed as “++ (1.0 uM<IC50<0.10 uM)”.
Turning to `NC(=O)c1cnc(Nc2ccc(C3CCN(C(=O)N4CCCC4)CC3)cc2)nc1NC1CC1` [Compound 13, 4-(cyclopropylamino)-2-((4-(1-(pyrrolidine-1-carbonyl)piperidin-4-yl)phenyl)amino)pyrimidine-5-carboxamide], the IC50 entry in experiment [1] is “++ (1.0 uM<IC50<0.10 uM)”. Further, on JAK1, the “JAK1 IC50 potency class” value was “+++ (0.10 uM<IC50<0.01 uM)”. Further, the “JAK2 IC50 potency class” value at JAK2 is listed as “+++ (0.10 uM<IC50<0.01 uM)”. In addition, the “JAK3 IC50 potency class” value on JAK3 is “++++ (0.01 uM<IC50<0.001 uM)”.
`NC(=O)c1cnc(Nc2ccc(C3CCN(c4cccnc4)CC3)cc2)nc1NC1CC1` [Compound 17, 4-(cyclopropylamino)-2-((4-(1-(pyridin-3-yl)piperidin-4-yl)phenyl)amino)pyrimidine-5-carboxamide]: the IC50 result in [1] is listed as “++ (1.0 uM<IC50<0.10 uM)”. The “JAK1 IC50 potency class” value at JAK1 is on record as “+++ (0.10 uM<IC50<0.01 uM)”. In addition, the “JAK2 IC50 potency class” value at JAK2 is given as “+++ (0.10 uM<IC50<0.01 uM)”. In addition, on JAK3, the “JAK3 IC50 potency class” value is on record as “+++ (0.10 uM<IC50<0.01 uM)”.
As to `COc1cc(Nc2ncc(F)c(Nc3ccc4c(n3)NC(=O)C(C)(C)O4)n2)cc(OC)c1OC` [Compound R406], the “effect on BCR signaling” value in experiment [2] (lymphoma cell lines and primary human lymphoma samples) is “attenuates BCR signaling”. Further, the apoptosis result in experiment [2] (lymphoma cell lines) is given as “resulting in apoptosis”. Further, in experiment [3], the clinical trial outcome is recorded as “favorable results”. Besides, the “activity against JAK kinases” value in the experiment on JAK kinases is listed as “active”. In the experiment with Src kinsase, the “activity against Src kinase” value is given as “not against”. The “inhibition of ITAM signaling” value in [4] is “inhibit ITAM signaling”.
Regarding `CN(C)C(=O)C1CCN(c2ccc(Nc3ncc(C(N)=O)c(NC4CC4)n3)cc2Cl)CC1` [Compound 53, 2-((3-chloro-4-(4-(dimethylcarbamoyl)piperidin-1-yl)phenyl)amino)-4-(cyclopropylamino)pyrimidine-5-carboxamide], the IC50 entry in experiment [1] was “+++ (0.10 uM<IC50<0.01 uM)”. The “JAK1 IC50 potency class” value on JAK1 is recorded as “+++ (0.10 uM<IC50<0.01 uM)”. Further, the “JAK2 IC50 potency class” value at JAK2 is given as “++++ (0.01 uM<IC50<0.001 uM)”. Further, at JAK3, the “JAK3 IC50 potency class” value is given as “++++ (0.01 uM<IC50<0.001 uM)”.
As for `NC(=O)c1cnc(Nc2ccc(C3CCNCC3)cc2)nc1NC1CC1` [Compound 55, 4-(cyclopropylamino)-2-((4-(piperidin-4-yl)phenyl)amino)pyrimidine-5-carboxamide], the half-maximal inhibitory concentration (IC50) entry in experiment [1] is reported as “+++ (0.10 uM<IC50<0.01 uM)”. In addition, the “JAK1 IC50 potency class” value at JAK1 is “+++ (0.10 uM<IC50<0.01 uM)”. Besides, the “JAK2 IC50 potency class” value on JAK2 was “++++ (0.01 uM<IC50<0.001 uM)”. Besides, the “JAK3 IC50 potency class” value at JAK3 is “++++ (0.01 uM<IC50<0.001 uM)”.

The values are drawn from patent publication US9676756B2 (PORTOLA PHARMACEUTICALS, INC., priority 2012, dated 2017).
